Here are results for 17 compounds from PubChem BioAssay AID298 (DTP/NCI, 2004).

In the assay the test system is MX-1 breast xenograft, intrarenal, nude mice, tumor weight. The assay is described as follows: NCI In Vivo Anticancer Drug Screen. Data for tumor model Human Mammary Carcinoma MX-1 Xenograft (intrarenal inoculation) in NU/NU BALB/C (nude) mice. As to conditions: endpoint: mean tumor weight change, higher = larger tumour. As to the method: The antitumor activity of compounds was measured in mice bearing transplantable tumors. Survival or tumor size were measured and the results are expressed as the measurement made in the treated group (T) divided by the measurement made in the vehicle treated control group (C). The tumor model used in this assay is Human Mammary Carcinoma MX-1 Xenograft (intrarenal inoculation) in NU/NU BALB/C (nude) mice

Setting [1] is: dose: 150.0 mg/kg/injection, schedule: Q04DX003 (ip), vehicle: saline with Tween-80.

Inconclusive results are not listed. *1 amine or outer side, *2 acyl side, *3 side chain or, on linkers, in order; H or OH if unused. Where a SMILES comes first, the peptide text is derived from it. Bridges are numbered along the chain shown (N, C = ends). Roman numbers before positions name the chains, in order. [ ]: non-standard residue; d: D form. Actinocin(9to1) = Cc1c2oc3c(C)ccc(C(=O)[*:1])c3nc-2c(C(=O)[*:2])c(N)c1=O; aThr = C[C@H](O)[C@H](N)C(=O)O; NMeV = CN[C@H](C(=O)O)C(C)C; Sar = CNCC(=O)O

Consider `Nc1nc(Br)nc2c1ncn2C1CC(O)C(CO)O1` (stereo not given), for which the T/C runs as follows: (dose: 7.5 mg/kg/injection, schedule: Q03DX003 (ip), vehicle: saline) 109 % of control; (dose: 15.0 mg/kg/injection, schedule: Q03DX003 (ip), vehicle: saline) 88 % of control; (dose: 30.0 mg/kg/injection, schedule: Q03DX003 (ip), vehicle: saline) 43 % of control; (dose: 60.0 mg/kg/injection, schedule: Q03DX003 (ip), vehicle: saline) 59 % of control; (dose: 120.0 mg/kg/injection, schedule: Q03DX003 (ip), vehicle: saline) 65 % of control.
With `N=C(N)c1ccc(Nc2ccc(-c3cc4ccc(C(=N)N)cc4[nH]3)cc2)cc1`, the T/C is 84 % of control (dose: 3.75 mg/kg/injection, schedule: Q04DX003 (ip), vehicle: saline); 69 % of control (dose: 7.5 mg/kg/injection, schedule: Q04DX003 (ip), vehicle: saline); 62 % of control (dose: 15.0 mg/kg/injection, schedule: Q04DX003 (ip), vehicle: saline).
Consider `Cn1nnc2c(C(N)=O)ncn2c1=O`, for which the T/C (dose: 75.0 mg/kg/injection, schedule: Q04DX003 (ip), vehicle: suspension in saline) is 68 % of control; the T/C (dose: 150.0 mg/kg/injection, schedule: Q04DX003 (ip), vehicle: saline) is 24 % of control; the T/C (dose: 150.0 mg/kg/injection, schedule: Q04DX003 (ip), vehicle: suspension in saline) was 15 % of control; the T/C (dose: 300.0 mg/kg/injection, schedule: Q04DX003 (ip), vehicle: saline) is -68 % of control; the T/C (dose: 300.0 mg/kg/injection, schedule: Q04DX003 (ip), vehicle: suspension in saline) is -100 % of control.
Take `COc1cc([C@@H]2c3cc4c(cc3[C@@H](OC3OC5CO[C@@H](c6cccs6)OC5C(O)C3O)[C@H]3COC(=O)[C@H]23)OCO4)cc(OC)c1O` (stereo not given in full): the T/C reads like this: (dose: 8.75 mg/kg/injection, schedule: Q01DX010 (ip), vehicle: saline) 82 % of control; (dose: 17.5 mg/kg/injection, schedule: Q01DX010 (ip), vehicle: saline) 74 % of control.
Consider `Cc1cc(N)c2ccccc2[n+]1CCCCCCCCCC[n+]1c(C)cc(N)c2ccccc21`, for which the T/C is, setting by setting: (dose: 0.75 mg/kg/injection, schedule: Q01DX010 (ip), vehicle: dextrose) 89 % of control; (dose: 1.5 mg/kg/injection, schedule: Q01DX010 (ip), vehicle: dextrose) 79 % of control; (dose: 2.0 mg/kg/injection, schedule: Q01DX010 (ip), vehicle: dextrose) 47 % of control; (dose: 3.0 mg/kg/injection, schedule: Q01DX010 (ip), vehicle: dextrose) 41 % of control.
Regarding `CCCCNP1(NCCCC)=NP(NCCCC)(NCCCC)=NP(NCCCC)(NCCCC)=NP(NCCCC)(NCCCC)=N1`, the T/C reads like this: under setting [1], 89 % of control; (dose: 300.0 mg/kg/injection, schedule: Q04DX003 (ip), vehicle: saline with Tween-80) 73 % of control.
For `O=[N+]([O-])c1ccc(N2CCOCC2)c2c1no[n+]2[O-]`, the T/C reads like this: (dose: 150.0 mg/kg/injection, schedule: Q04DX003 (sc), vehicle: saline with Tween-80) 99 % of control; (dose: 300.0 mg/kg/injection, schedule: Q04DX003 (sc), vehicle: saline with Tween-80) 55 % of control; (dose: 600.0 mg/kg/injection, schedule: Q04DX003 (sc), vehicle: saline with Tween-80) 74 % of control; (dose: 1200.0 mg/kg/injection, schedule: Q04DX003 (sc), vehicle: saline with Tween-80) 63 % of control.
As for `CCOC(=O)C(N)CSC(=O)NC` (stereo not given), the T/C by setting is: (dose: 112.5 mg/kg/injection, schedule: Q04DX003 (ip), vehicle: Klucel (hydroxypropylcellulose) (HPC)) 54 % of control; (dose: 125.0 mg/kg/injection, schedule: Q04DX003 (sc), vehicle: saline) 72 % of control; (dose: 225.0 mg/kg/injection, schedule: Q04DX003 (ip), vehicle: Klucel (hydroxypropylcellulose) (HPC)) 14 % of control; (dose: 225.0 mg/kg/injection, schedule: Q04DX003 (sc), vehicle: saline) 26 % of control; (dose: 450.0 mg/kg/injection, schedule: Q04DX003 (ip), vehicle: Klucel (hydroxypropylcellulose) (HPC)) 9 % of control; (dose: 450.0 mg/kg/injection, schedule: Q04DX003 (sc), vehicle: saline) 2 % of control. Further, where the note is “dose: 900.0 mg/kg/injection, schedule: Q04DX003 (sc), vehicle: saline”, the T/C is -19 % of control.
Take `N=C(N)c1ccc(N=NNc2ccc(C(=N)N)cc2)cc1`: the T/C under setting [1] is 83 % of control.
`O=NNc1ccc(Cl)cn1`: the T/C reads like this: (dose: 4.7 mg/kg/injection, schedule: Q04DX003 (ip), vehicle: water) 60 % of control; (dose: 9.4 mg/kg/injection, schedule: Q04DX003 (ip), vehicle: water) 59 % of control; (dose: 18.7 mg/kg/injection, schedule: Q04DX003 (ip), vehicle: water) 29 % of control; (dose: 37.5 mg/kg/injection, schedule: Q04DX003 (ip), vehicle: water) 4 % of control.
With `COC1C(CO)OC(n2c3c(Cl)cccc3c3c4c(c5c6cccc(Cl)c6[nH]c5c32)C(=O)NC4=O)C(O)C1O` (stereo not given), the T/C was 69 % of control (dose: 100.0 mg/kg/injection, schedule: Q04DX003 (ip), vehicle: distilled water + Tween-80); 43 % of control (dose: 200.0 mg/kg/injection, schedule: Q04DX003 (ip), vehicle: distilled water + Tween-80); 21 % of control (dose: 400.0 mg/kg/injection, schedule: Q04DX003 (ip), vehicle: distilled water + Tween-80); 30 % of control (dose: 800.0 mg/kg/injection, schedule: Q04DX003 (ip), vehicle: distilled water + Tween-80).
In the case of `C/C(=N\NC(=O)c1ccccc1O)c1cccc(/C(C)=N/NC(=O)c2ccccc2O)n1`, the T/C was 109 % of control (dose: 25.0 mg/kg/injection, schedule: Q04DX003 (ip), vehicle: saline); 77 % of control (dose: 50.0 mg/kg/injection, schedule: Q04DX003 (ip), vehicle: saline); 100 % of control (dose: 100.0 mg/kg/injection, schedule: Q04DX003 (ip), vehicle: saline).
As for `Cc1c2oc3c(C)ccc(C(=O)N[C@@H]4C(=O)N[C@H](C(C)C)C(=O)N5CCC[C@H]5C(=O)N(C)CC(=O)N(C)[C@@H](C(C)C)C(=O)O[C@H]4C)c3nc-2c(C(=O)N[C@@H]2C(=O)N[C@H](C(C)C)C(=O)N3CCC[C@H]3C(=O)N(C)CC(=O)N(C)[C@@H](C(C)C)C(=O)O[C@H]2C)c(N)c1=O` (I: [aThr][dV]P[Sar][NMeV] / II: [aThr][dV]P[Sar][NMeV]; ester I:1-I:C, II:1-II:C; linker I:N-II:N via Actinocin(9to1)), the T/C (dose: 25.0 micrograms/kg/injection, schedule: Q01DX010 (sc), vehicle: saline) is 100 % of control; the T/C (dose: 50.0 micrograms/kg/injection, schedule: Q01DX010 (sc), vehicle: saline) is 49 % of control; the T/C (dose: 100.0 micrograms/kg/injection, schedule: Q01DX010 (sc), vehicle: saline) is 12 % of control; the T/C (dose: 200.0 micrograms/kg/injection, schedule: Q01DX010 (sc), vehicle: saline) was 1 % of control.
On to `C[C@]12CCC(=O)C(O)=C1CC[C@@H]1[C@@H]2CC[C@]2(C)C(=O)CC[C@@H]12`, for which the T/C is, setting by setting: (dose: 150.0 mg/kg/injection, schedule: Q04DX003 (ip), vehicle: Klucel (hydroxypropylcellulose) (HPC)) 101 % of control; (dose: 300.0 mg/kg/injection, schedule: Q04DX003 (ip), vehicle: Klucel (hydroxypropylcellulose) (HPC)) 96 % of control; (dose: 600.0 mg/kg/injection, schedule: Q04DX003 (ip), vehicle: Klucel (hydroxypropylcellulose) (HPC)) 122 % of control; (dose: 1200.0 mg/kg/injection, schedule: Q04DX003 (ip), vehicle: Klucel (hydroxypropylcellulose) (HPC)) 113 % of control.
As for `CCC1(O)C(=O)OCc2c1cc1n(c2=O)Cc2cc3cc4c(cc3nc2-1)OCO4` (stereo not given), the T/C (dose: 4.0 mg/kg/injection, schedule: Q04DX003 (ip), vehicle: saline with Tween-80) is -100 % of control.
Turning to `CC(C)C(N)C(=O)Nc1nncs1` (stereo not given), the T/C runs as follows: (dose: 150.0 mg/kg/injection, schedule: Q04DX003 (sc), vehicle: saline) 73 % of control; (dose: 300.0 mg/kg/injection, schedule: Q04DX003 (sc), vehicle: saline) 77 % of control; (dose: 600.0 mg/kg/injection, schedule: Q04DX003 (sc), vehicle: saline) 86 % of control; (dose: 1200.0 mg/kg/injection, schedule: Q04DX003 (sc), vehicle: saline) 46 % of control.
Turning to `O=c1c(O)c(O)c1=O.[NH2-].[NH2-].[NH2-].[NH2-].[NH2-].[Ru+5]`, the T/C (dose: 12.5 mg/kg/injection, schedule: Q04DX003 (ip), vehicle: suspension in saline) is 98 % of control; the T/C (dose: 25.0 mg/kg/injection, schedule: Q04DX003 (ip), vehicle: suspension in saline) was 74 % of control; the T/C (dose: 50.0 mg/kg/injection, schedule: Q04DX003 (ip), vehicle: suspension in saline) is 60 % of control.
